The text below walks through data of US9758529B2, “Fused dihydro-4H-pyrazolo[5,1-C][1,4]oxazinyl compounds and analogs for treating CNS disorders” (Sunovion Pharmaceuticals Inc., priority 2015, dated 2017).

Molecules are shown by their SMILES. Counter-ions that a name gives are not always drawn.

For this assay, the system named is mice. The assay can be described thus: Neuropharmacological Assay (SmartCube). It counts as in vivo. To be noted: i.p. 15 min before behavioral test; 3 doses, most efficacious dose(s) presented. From the text: Neurosci. […] As reported in Roberds, because psychiatric diseases generally result from disorders of cell-cell communication or circuitry, intact systems are useful in detecting improvement in disease-relevant endpoints. These endpoints are typically behavioral in nature, often requiring human observation and interpretation. To facilitate testing of multiple compounds for behavioral effects relevant to psychiatric disease, PsychoGenics, Inc. (Tarrytown, N.Y., “PGI”) developed SmartCube™, an automated system in which behaviors of compound-treated mice are captured by digital video and analyzed with computer algorithms. […] PGI Analytical Systems uses data from SmartCube™ to compare the behavioral signature of a test compound to a database of behavioral signatures obtained using a large set of diverse reference compounds. (The composition of the database as well as validation of the method is further described in Roberds). In this way, the neuropharmacological effects of a test compound can be predicted by similarity to major classes of compounds, such as antipsychotics, anxiolytics and antidepressants.
The SmartCube™ system produces an activity signature indicating the probability that the activity of the test compound at the administered dose matches a given class of neuropharmacological agents. (See, e.g., Roberds, FIGS. 2 and 3). The test compound is simultaneously compared against multiple classes of agents; thus, a separate probability is generated for each behavioral effect measured (e.g., anxiolytic activity, analgesic activity, etc.). In Table 2 and 2B, these probabilities are reported for each behavioral effect measured as follows:
where LOQ is the limit of quantification.
Provided compounds were dissolved in a mixture of Pharmasolve™ (N-methyl-2-pyrrolidone), polyethylene glycol and propylene glycol, and were injected i.p. 15 min. before the behavioral test. For each compound, injections were administered at 3 different doses. For each behavioral effect measured, results for the most efficacious dose(s) are presented.
As to `CN(C)CC1OCCn2nc3ccc(F)cc3c21.Cl` (stereo not drawn) [Compound 8, 1-(9-fluoro-3,4-dihydro-1H-[1,4]oxazino[4,3-b]indazol-1-yl)-N,N-dimethylmethanaminium chloride], the “AD: ADHD (probability of class match)” value is on record as “+ (LOQ≦ + <5%)”, the “AG: analgesic (probability of class match)” value (from here on “AG: analgesic”) is given as “++ (5%≦ ++ <25%)”, the “AX: anxiolytic (probability of class match)” value (“AX: anxiolytic” below) is recorded as “++ (5%≦ ++ <25%)” and the “CE: cognitive enhancer (probability of class match)” value (“CE: cognitive enhancer” below) is “++ (5%≦ ++ <25%)”. For the same compound, the “DP: anti-depressant (probability of class match)” value (“DP: anti-depressant” below) is given as “+++ (25%≦ +++ <50%)”, the “HA: hallucinogen (probability of class match)” value (“HA: hallucinogen” for short) is “+ (LOQ≦ + <5%)”, the “MS: mood stabilizer (probability of class match)” value (shortened to “MS: mood stabilizer”) was “+ (LOQ≦ + <5%)” and the “PS: anti-psychotic (probability of class match)” value (shortened to “PS: anti-psychotic”) is “++ (5%≦ ++ <25%)”. Further, the “SD: sedative hypnotic (probability of class match)” value (from here on “SD: sedative hypnotic”) was “+ (LOQ≦ + <5%)”, the “UN: uncharacterized CNS activity (probability of class match)” value (“UN: uncharacterized CNS activity” below) is “+ (LOQ≦ + <5%)” and the “XG: anxiogenic (probability of class match)” value (from here on “XG: anxiogenic”) is “++ (5%≦ ++ <25%)”.

As to `Cl.NCC1OCCn2nc3ccc(F)cc3c21` (stereo not drawn) [Compound 9, (9-fluoro-3,4-dihydro-1H-[1,4]oxazino[4,3-b]indazol-1-yl)methanaminium chloride], the “AD: ADHD (probability of class match)” value was “++ (5%≦ ++ <25%)”, the “AG: analgesic” value is given as “++ (5%≦ ++ <25%)”, the “AX: anxiolytic” value is “+ (LOQ≦ + <5%)” and the “CE: cognitive enhancer” value is given as “++ (5%≦ ++ <25%)”. Also, the “DP: anti-depressant” value was “++ (5%≦ ++ <25%)”, the “HA: hallucinogen” value was “+ (LOQ≦ + <5%)”, the “MS: mood stabilizer” value was “+ (LOQ≦ + <5%)” and the “PS: anti-psychotic” value is “+ (LOQ≦ + <5%)”. Moreover, the “SD: sedative hypnotic” value is “+ (LOQ≦ + <5%)”, the “UN: uncharacterized CNS activity” value is recorded as “+++ (25%≦ +++ <50%)” and the “XG: anxiogenic” value is on record as “+ (LOQ≦ + <5%)”.

As for `CNCC1OCCn2nc3cc(F)ccc3c21` (stereo not drawn) [Compound 10, 1-(8-fluoro-3,4-dihydro-1H-[1,4]oxazino[4,3-b]indazol-1-yl)-N-methylmethanaminium], the “AD: ADHD (probability of class match)” value is recorded as “+ (LOQ≦ + <5%)”, the “AG: analgesic” value is “++ (5%≦ ++ <25%)”, the “AX: anxiolytic” value is reported as “++ (5%≦ ++ <25%)” and the “CE: cognitive enhancer” value is given as “+ (LOQ≦ + <5%)”. The “DP: anti-depressant” value is “++++ (50%≦ ++++)”, the “HA: hallucinogen” value was “+ (LOQ≦ + <5%)”, the “MS: mood stabilizer” value is “+ (LOQ≦ + <5%)” and the “PS: anti-psychotic” value was “++ (5%≦ ++ <25%)”. Moreover, the “SD: sedative hypnotic” value is “+ (LOQ≦ + <5%)”, the “UN: uncharacterized CNS activity” value is recorded as “+ (LOQ≦ + <5%)” and the “XG: anxiogenic” value was “++ (5%≦ ++ <25%)”.

With `CN(C)CC1OCCn2nc3cc(F)ccc3c21.Cl` (stereo not drawn) [Compound 11, 1-(8-fluoro-3,4-dihydro-1H-[1,4]oxazino[4,3-b]indazol-1-yl)-N,N-dimethylmethanaminium], the “AD: ADHD (probability of class match)” value was “+ (LOQ≦ + <5%)”, the “AG: analgesic” value was “+ (LOQ≦ + <5%)”, the “AX: anxiolytic” value is given as “+ (LOQ≦ + <5%)” and the “CE: cognitive enhancer” value is reported as “+ (LOQ≦ + <5%)”. Further, the “DP: anti-depressant” value is on record as “+++ (25%≦ +++ <50%)”, the “HA: hallucinogen” value is given as “+ (LOQ≦ + <5%)”, the “MS: mood stabilizer” value is listed as “+ (LOQ≦ + <5%)” and the “PS: anti-psychotic” value is listed as “++ (5%≦ ++ <25%)”. For the same compound, the “SD: sedative hypnotic” value is on record as “++ (5%≦ ++ <25%)”, the “UN: uncharacterized CNS activity” value is reported as “+ (LOQ≦ + <5%)” and the “XG: anxiogenic” value was “+ (LOQ≦ + <5%)”.

On to `Cl.NCC1OCCn2nc3cc(F)ccc3c21` (stereo not drawn) [Compound 12, (8-fluoro-3,4-dihydro-1H-[1,4]oxazino[4,3-b]indazol-1-yl)methanaminium], for which the “AD: ADHD (probability of class match)” value is given as “+ (LOQ≦ + <5%)”, the “AG: analgesic” value is listed as “+ (LOQ≦ + <5%)”, the “AX: anxiolytic” value is “+ (LOQ≦ + <5%)” and the “CE: cognitive enhancer” value is reported as “+ (LOQ≦ + <5%)”. In addition, the “DP: anti-depressant” value is “+ (LOQ≦ + <5%)”, the “HA: hallucinogen” value is listed as “+ (LOQ≦ + <5%)”, the “MS: mood stabilizer” value was “+ (LOQ≦ + <5%)” and the “PS: anti-psychotic” value is given as “+ (LOQ≦ + <5%)”. Further, the “SD: sedative hypnotic” value was “+ (LOQ≦ + <5%)”, the “UN: uncharacterized CNS activity” value is “+ (LOQ≦ + <5%)” and the “XG: anxiogenic” value is “+ (LOQ≦ + <5%)”.

Turning to `c1ccc2c3n(nc2c1)CCOC3[C@@H]1CCCN1` (stereo partly drawn) [Compound 13, 1-((S)-pyrrolidin-2-yl)-3,4-dihydro-1H-[1,4]oxazino[4,3-b]indazole hydrochloride], the “AD: ADHD (probability of class match)” value is “+ (LOQ≦ + <5%)”, the “AG: analgesic” value is “+++ (25%≦ +++ <50%)”, the “AX: anxiolytic” value is given as “++ (5%≦ ++ <25%)” and the “CE: cognitive enhancer” value is listed as “++ (5%≦ ++ <25%)”. Also, the “DP: anti-depressant” value was “++ (5%≦ ++ <25%)”, the “HA: hallucinogen” value is reported as “+ (LOQ≦ + <5%)”, the “MS: mood stabilizer” value was “++ (5%≦ ++ <25%)” and the “PS: anti-psychotic” value is “+ (LOQ≦ + <5%)”. Moreover, the “SD: sedative hypnotic” value is “+ (LOQ≦ + <5%)”, the “UN: uncharacterized CNS activity” value was “+ (LOQ≦ + <5%)” and the “XG: anxiogenic” value was “+ (LOQ≦ + <5%)”.

Turning to `CN1CCC[C@H]1C1OCCn2nc3ccccc3c21` (stereo partly drawn) [Compound 14, 1-((S)-1-methylpyrrolidin-2-yl)-3,4-dihydro-1H-[1,4]oxazino[4,3-b]indazole hydrochloride], the “AD: ADHD (probability of class match)” value was “+ (LOQ≦ + <5%)”, the “AG: analgesic” value is on record as “+ (LOQ≦ + <5%)”, the “AX: anxiolytic” value was “+++ (25%≦ +++ <50%)” and the “CE: cognitive enhancer” value was “++ (5%≦ ++ <25%)”. The “DP: anti-depressant” value is “++ (5%≦ ++ <25%)”, the “HA: hallucinogen” value is listed as “+ (LOQ≦ + <5%)”, the “MS: mood stabilizer” value is listed as “+ (LOQ≦ + <5%)” and the “PS: anti-psychotic” value is “++ (5%≦ ++ <25%)”. Further, the “SD: sedative hypnotic” value is recorded as “+ (LOQ≦ + <5%)”, the “UN: uncharacterized CNS activity” value is “+ (LOQ≦ + <5%)” and the “XG: anxiogenic” value is listed as “+ (LOQ≦ + <5%)”.

Turning to `NCC1OCCn2nc3ccccc3c21` (stereo not drawn) [Compound 15, (3,4-dihydro-1H-[1,4]oxazino[4,3-b]indazol-1-yl)methanamine], the “AD: ADHD (probability of class match)” value is on record as “++++ (50%≦ ++++)”, the “AG: analgesic” value is “++ (5%≦ ++ <25%)”, the “AX: anxiolytic” value is on record as “+ (LOQ≦ + <5%)” and the “CE: cognitive enhancer” value was “+ (LOQ≦ + <5%)”. Besides, the “DP: anti-depressant” value is “++ (5%≦ ++ <25%)”, the “HA: hallucinogen” value was “+ (LOQ≦ + <5%)”, the “MS: mood stabilizer” value is “+ (LOQ≦ + <5%)” and the “PS: anti-psychotic” value is recorded as “+ (LOQ≦ + <5%)”. For the same compound, the “SD: sedative hypnotic” value is “+ (LOQ≦ + <5%)”, the “UN: uncharacterized CNS activity” value is “+ (LOQ≦ + <5%)” and the “XG: anxiogenic” value was “+ (LOQ≦ + <5%)”.

Consider `c1ccc2c3n(nc2c1)CCOC3CNC1CCC1` (stereo not drawn) [Compound 16, N-((3,4-dihydro-1H-[1,4]oxazino[4,3-b]indazol-1-yl)methyl) cyclobutanamine], for which the “AD: ADHD (probability of class match)” value is reported as “+ (LOQ≦ + <5%)”, the “AG: analgesic” value is “+ (LOQ≦ + <5%)”, the “AX: anxiolytic” value is “+ (LOQ≦ + <5%)” and the “CE: cognitive enhancer” value was “+ (LOQ≦ + <5%)”. Also, the “DP: anti-depressant” value was “+ (LOQ≦ + <5%)”, the “HA: hallucinogen” value is recorded as “+ (LOQ≦ + <5%)”, the “MS: mood stabilizer” value is reported as “+ (LOQ≦ + <5%)” and the “PS: anti-psychotic” value is given as “+ (LOQ≦ + <5%)”. For the same compound, the “SD: sedative hypnotic” value is “+ (LOQ≦ + <5%)”, the “UN: uncharacterized CNS activity” value is listed as “+ (LOQ≦ + <5%)” and the “XG: anxiogenic” value is listed as “+ (LOQ≦ + <5%)”.
